These results are taken from patent US20130008801A1, “METHODS AND COMPOSITIONS FOR APPLICATIONS RELATED TO MICROBIOLOGICALLY INFLUENCED CORROSION” (priority 2010, published 2013).

The test system of test [1] is planktonic or sessile SRB. Kind of test: SRB growth in the culture medium with MIC promoter. Type of test: cell-based, Desulfovibrio desulfuricans (ATCC 7757). Particulars: culture medium used in this work; repeated experiments. The text has this: Second, the BCSR theory points to the existence of “MIC promoters.” Guided by this, we have successfully found a class of chemicals that can greatly accelerate BCSR leading to much more severe MIC pitting. […] This discovery leads to a new aspect of MIC monitoring, and a non-biocidal mitigation method that may even allow us to live with corrosive microbes with much reduced MIC pitting when the promoter's MIC acceleration effect is inhibited.
(§1) The BCSR theory indicates a bottleneck in MIC due to SRB. To resolve the bottleneck, an electron carrier or mediator was added as an MIC “promoter” into 100 ml anaerobic vials containing SRB and carbon steel coupons. This MIC promoter is not corrosive by itself. After a week of SRB growth, coupons were examined using SEM and IFM (Infinite Focus Microscopy). Desulfovibrio desulfuricans ATCC7757 was used to represent SRB in this work. […] Liquid medium was deoxygenated using nitrogen sparging. To study the pits on a carbon steel coupon, the coupon surface was cleaned using an acid solution before SEM and IFM.

The test system of test [2] is Desulfovibrio desulfuricans ATCC7757 (SRB) on carbon steel coupons. Kind of test: MIC pitting test: SRB with carbon steel coupons in anaerobic vials, pits examined by SEM and IFM. Type of test: cell-based, Desulfovibrio desulfuricans (ATCC 7757). As to conditions: promoter added to the test medium at a low concentration; C1018 carbon steel coupon, ATCC 1249 medium, 37° C., 7 days; versus no promoter (FIG. 2). The protocol:
Y-axis is pit depth in microns and x-axis pit position in microns.
as §1

SMILES strings stand for the structures.

In the case of `Cc1cc2nc3c(=O)[nH]c(=O)nc-3n(C[C@H](O)[C@H](O)[C@H](O)CO)c2cc1C` [riboflavin], the “planktonic or sessile SRB growth” value in test [1] is “did not promote planktonic or sessile SRB growth”. For the same compound, the MIC pit depth result in test [2] was “dramatic MIC pit depth increase”.
